Source: patent US20130029942A1, “COMPOUNDS AND THERAPEUTICAL USES THEREOF” (Myrexis, Inc., priority 2003, published 2013)
Like-named read-outs stand apart in the source and are kept apart here.

Key:
T-47D cells [1] = experiment: Inhibition of cell proliferation (GI50), CellTiter-Glo, T-47D; format: cell-based; settings: Homo sapiens, T47D, 48 h
Procedure: (§1) T-47D, DLD, H1299, MX-1 and SW620 cells were grown and harvested as in Example 262. […] An aliquot of 45 μL of cells was added to a well of a 96-well microtiter plate containing 5 μL of a 10% DMSO in RPMI-1640 media solution without compound as the control sample for maximal cell proliferation (Lmax). The samples were mixed by agitation and then incubated at 37° C. for 48 h in a 5% CO2—95% humidity incubator. After incubation, the samples were removed from the incubator and 25 μL of CellTiter-Glo™ reagent (Promega) was added. The samples were mixed by agitation and incubated at room temeperature for 10-15 min. Plates were then read using a luminescent plate reader (Model SPECTRAfluor Plus, Tecan) to give Ltest values.
(§2) The samples were mixed by agitation and then incubated at 37° C. for 0.5 h in a 5% CO2—95% humidity incubator. After incubation, the samples were removed from the incubator and 25 μL of CellTiter-Glo™ reagent (Promega) was added. The samples were mixed by agitation and incubated at 37° C. for 10-15 min at room temperature in a 5% CO2—95% humidity incubator. Fluorescence was read as above, (LStart) defining luminescence for initial cell number used as baseline in GI50 determinations.

T-47D cells [2] = experiment: Caspase cascade activation / induction of apoptosis in T-47D cells (fluorogenic N-(Ac-DEVD)-N'-ethoxycarbonyl-R110 substrate); format: cell-based, human; settings: Homo sapiens, T47D
NCI-ADR/Res cells = experiment: Cytotoxicity (ATP-lite cell viability), MDR-1 over-expressing NCI-ADR/Res; format: cell-based; settings: Homo sapiens, 72 hours
Procedure: (§3) Cytotoxicity of compounds in multidrug resistant cells can be determined by administering compounds to cell lines that overexpress the multidrug resistance pump MDR-1 and determining the viability of the cell lines.
(§4) NCI-ADR/Res, MCF-7, P388, and P388/ADR cell lines were obtained from American Type Culture Collection (Manassas, Va.) and maintained in RPMI-1640 media supplemented with 10% FCS, 10 units/ml penicillin and streptomycin, 2 mM Glutamax and 1 mM sodium pyruvate (Invitrogen Corporation, Carlsbad, Calif.). For compound testing, cells were plated in 96 well dishes at a concentration of 1.5×10^4 cells/well. Cells were allowed to adhere to the plate overnight and then incubated with compounds at final concentrations ranging from 0.13 nM to 10 uM for 72 hours. Cell viability was then assessed using the ATP-lite reagent (Perkin Elmer, Foster City, Calif.). Plates were read on a Wallac Topcount luminescence reader (Perkin Elmer, Foster City, Calif.) and the results graphed in Prism software (Graphpad Software, Inc., San Diego, Calif.). Non-linear regression with variable slope analysis was performed to obtain IC50 concentration values.
(§5) Example 1 compound, docetaxel, and vinblastine were tested for their ability to kill multidrug resistant cells by administering the compounds to NCI-ADR/Res, MCF-7 cells, P388 and P388/ADR cells and determining the viability of the cells.

DLD cells = experiment: Inhibition of cell proliferation (GI50), CellTiter-Glo, DLD; format: cell-based; settings: Homo sapiens, 48 h
Procedure: as §1, §2

Topoisomerase II = Topoisomerase II (Homo sapiens, UniProt P11388); experiment: Topoisomerase II activity assay (relaxation of supercoiled DNA, gel); settings: 100 μM, pRYG DNA, FIG. 1
Chain of Topoisomerase II (P11388 whole entry): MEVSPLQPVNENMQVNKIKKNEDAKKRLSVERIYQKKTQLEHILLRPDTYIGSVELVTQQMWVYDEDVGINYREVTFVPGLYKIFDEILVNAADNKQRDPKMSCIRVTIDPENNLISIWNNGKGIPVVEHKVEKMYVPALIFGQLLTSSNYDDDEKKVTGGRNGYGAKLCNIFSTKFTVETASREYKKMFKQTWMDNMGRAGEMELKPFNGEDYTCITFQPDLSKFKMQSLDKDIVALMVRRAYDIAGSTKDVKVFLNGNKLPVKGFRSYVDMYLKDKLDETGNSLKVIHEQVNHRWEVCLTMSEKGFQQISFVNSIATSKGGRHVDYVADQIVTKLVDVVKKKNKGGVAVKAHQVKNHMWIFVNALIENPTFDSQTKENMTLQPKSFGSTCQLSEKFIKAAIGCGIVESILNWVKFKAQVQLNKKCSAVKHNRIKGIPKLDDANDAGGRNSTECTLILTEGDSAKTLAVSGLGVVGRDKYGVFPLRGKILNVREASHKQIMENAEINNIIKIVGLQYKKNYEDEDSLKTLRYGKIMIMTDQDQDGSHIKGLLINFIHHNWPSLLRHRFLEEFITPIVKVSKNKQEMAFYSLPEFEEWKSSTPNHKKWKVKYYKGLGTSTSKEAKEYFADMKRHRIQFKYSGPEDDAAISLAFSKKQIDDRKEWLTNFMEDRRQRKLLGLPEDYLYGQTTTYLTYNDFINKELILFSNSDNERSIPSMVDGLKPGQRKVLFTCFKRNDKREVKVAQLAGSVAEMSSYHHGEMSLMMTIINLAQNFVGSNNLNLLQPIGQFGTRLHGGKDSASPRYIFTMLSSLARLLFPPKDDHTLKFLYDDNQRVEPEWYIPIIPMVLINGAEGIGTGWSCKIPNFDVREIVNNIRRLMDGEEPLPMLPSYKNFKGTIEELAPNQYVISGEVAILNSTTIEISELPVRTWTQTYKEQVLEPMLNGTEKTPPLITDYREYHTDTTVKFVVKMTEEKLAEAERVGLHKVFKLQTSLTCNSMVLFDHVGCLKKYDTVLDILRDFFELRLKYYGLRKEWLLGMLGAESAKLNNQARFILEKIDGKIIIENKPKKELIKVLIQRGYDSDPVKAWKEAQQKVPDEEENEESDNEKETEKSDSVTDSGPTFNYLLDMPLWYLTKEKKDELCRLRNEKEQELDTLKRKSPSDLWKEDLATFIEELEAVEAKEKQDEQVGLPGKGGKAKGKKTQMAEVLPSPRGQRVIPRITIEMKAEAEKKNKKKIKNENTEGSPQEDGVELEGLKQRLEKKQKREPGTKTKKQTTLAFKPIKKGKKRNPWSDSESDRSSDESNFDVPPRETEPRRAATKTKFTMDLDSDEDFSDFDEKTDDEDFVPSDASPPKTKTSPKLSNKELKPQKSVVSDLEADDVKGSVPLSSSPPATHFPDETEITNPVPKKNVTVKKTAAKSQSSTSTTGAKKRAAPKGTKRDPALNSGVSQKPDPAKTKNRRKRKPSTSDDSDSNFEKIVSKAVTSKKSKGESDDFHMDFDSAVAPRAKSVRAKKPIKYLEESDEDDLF

MCF-7 cells = experiment: Cytotoxicity (ATP-lite cell viability), MCF-7; format: cell-based; settings: Homo sapiens, MCF7; MCF-7, 72 hours
Procedure: as §3, §4, §5

H1299 cells = experiment: Inhibition of cell proliferation (GI50), CellTiter-Glo, H1299; format: cell-based; settings: Homo sapiens, NCI-H1299, 48 h
Procedure: as §1, §2

MX-1 cells = experiment: Inhibition of cell proliferation (GI50), CellTiter-Glo, MX-1; format: cell-based; settings: Homo sapiens, MX1, 48 h
Procedure: as §1, §2

topoisomerase I = molecular target: T1, topoisomerase I (Homo sapiens, UniProt P11387); experiment: Topoisomerase I activity assay (relaxation of supercoiled DNA, gel); settings: Form I DNA, varying concentrations, FIG. 2
T1 sequence (P11387 1-765): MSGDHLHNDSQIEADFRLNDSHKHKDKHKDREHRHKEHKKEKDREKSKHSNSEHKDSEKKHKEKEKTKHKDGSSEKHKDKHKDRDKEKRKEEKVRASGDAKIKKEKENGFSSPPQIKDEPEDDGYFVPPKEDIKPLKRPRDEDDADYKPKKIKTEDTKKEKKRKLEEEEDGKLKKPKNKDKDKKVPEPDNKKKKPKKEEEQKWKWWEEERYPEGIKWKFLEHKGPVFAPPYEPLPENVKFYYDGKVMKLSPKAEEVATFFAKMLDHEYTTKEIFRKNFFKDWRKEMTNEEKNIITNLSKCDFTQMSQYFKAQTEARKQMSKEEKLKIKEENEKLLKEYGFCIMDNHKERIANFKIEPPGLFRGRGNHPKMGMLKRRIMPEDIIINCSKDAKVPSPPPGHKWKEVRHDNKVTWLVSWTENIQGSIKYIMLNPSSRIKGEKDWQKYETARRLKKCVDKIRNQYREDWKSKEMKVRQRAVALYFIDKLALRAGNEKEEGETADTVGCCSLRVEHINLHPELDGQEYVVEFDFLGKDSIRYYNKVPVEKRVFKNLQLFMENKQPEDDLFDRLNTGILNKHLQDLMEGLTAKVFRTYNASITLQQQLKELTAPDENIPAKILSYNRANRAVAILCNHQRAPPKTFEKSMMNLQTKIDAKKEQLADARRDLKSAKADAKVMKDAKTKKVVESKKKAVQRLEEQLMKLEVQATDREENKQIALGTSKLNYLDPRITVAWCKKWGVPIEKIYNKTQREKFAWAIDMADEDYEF

tubulin = tubulin (Bos taurus, UniProt P81947+Q6B856); experiment: Inhibition of tubulin polymerization (DAPI fluorescence); format: biochemical; settings: MAP-rich tubulin, 30 minutes at 37° C.
Chain of tubulin (P81947 whole entry): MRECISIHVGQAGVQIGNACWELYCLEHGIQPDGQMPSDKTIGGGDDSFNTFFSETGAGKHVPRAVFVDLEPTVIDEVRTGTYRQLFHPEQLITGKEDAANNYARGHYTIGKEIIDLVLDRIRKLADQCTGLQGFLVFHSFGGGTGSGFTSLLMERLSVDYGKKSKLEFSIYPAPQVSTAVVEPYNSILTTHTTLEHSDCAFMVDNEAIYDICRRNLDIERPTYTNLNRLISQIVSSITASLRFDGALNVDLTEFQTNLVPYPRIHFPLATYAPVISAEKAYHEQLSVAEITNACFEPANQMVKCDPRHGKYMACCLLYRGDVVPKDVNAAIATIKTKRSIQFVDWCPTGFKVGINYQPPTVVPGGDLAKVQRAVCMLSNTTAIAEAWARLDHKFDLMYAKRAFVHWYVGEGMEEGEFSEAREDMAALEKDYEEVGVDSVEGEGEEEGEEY
Chain of tubulin (Q6B856 whole entry): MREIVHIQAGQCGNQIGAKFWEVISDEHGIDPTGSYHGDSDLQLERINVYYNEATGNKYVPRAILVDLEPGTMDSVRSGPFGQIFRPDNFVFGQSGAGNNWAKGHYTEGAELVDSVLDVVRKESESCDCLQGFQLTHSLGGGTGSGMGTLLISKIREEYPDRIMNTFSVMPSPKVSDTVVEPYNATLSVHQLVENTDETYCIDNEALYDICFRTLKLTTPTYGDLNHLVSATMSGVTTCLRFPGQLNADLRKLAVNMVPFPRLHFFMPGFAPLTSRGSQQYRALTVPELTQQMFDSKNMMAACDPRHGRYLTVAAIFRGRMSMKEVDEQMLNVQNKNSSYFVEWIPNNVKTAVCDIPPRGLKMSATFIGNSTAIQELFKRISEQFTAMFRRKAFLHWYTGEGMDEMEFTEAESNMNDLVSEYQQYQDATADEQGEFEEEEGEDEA
Procedure: Lyophilized tubulin (Cytoskeleton #ML113, 1 mg, MAP-rich) was assayed for the effect of the test compound on tubulin polymerization as measured by change in fluorescence for 4′,6-diamidino-2-phenylindole (DAPI) (Barron, D. M. et al. Analytical Biochem., 2003, 315, 49-56). 1 μl of serial dilutions of each test compound (from 100×DMSO stock) was added in 96 well plate format and preincubated for 30 minutes with 94 ul of the non-GTP supplemented tubulin supernatant. 5 μl of DAPI/GTP solution was added to initiate polymerization and incubated for 30 minutes at 37° C. Fluorescence was read with excitation 350 nm, emission wavelength 485 nm on a Tecan Spectraflour Plus. Polymerized tubulin (DMSO and with the tubulin stabilizer Taxol® (paclitaxel)) gives a higher DAPI fluorescence as compared to non-polymerized tubulin (vinblastine and colchicine used to determine baseline).

SW620 cells = experiment: Inhibition of cell proliferation (GI50), CellTiter-Glo, SW620; format: cell-based; settings: Homo sapiens, SW-620, 48 h
Procedure: as §1, §2

P388/ADR cells = experiment: Cytotoxicity (ATP-lite cell viability), MDR-1 over-expressing P388/ADR; format: cell-based; settings: Mus musculus, 72 hours
Procedure: as §3, §4, §5

P388 cells = experiment: Cytotoxicity (ATP-lite cell viability), P388; format: cell-based, murine; settings: Mus musculus; P388, 72 hours
Procedure: as §3, §4, §5

[3] = molecular target: tyrosine kinase of Epidermal Growth Factor Receptor (Homo sapiens, UniProt P00533); settings: Bridges et al. 1996; read-out: IC50 EGFR tyrosine kinase; cited from earlier work
Chain of tyrosine kinase of Epidermal Growth Factor Receptor (P00533 25-1210): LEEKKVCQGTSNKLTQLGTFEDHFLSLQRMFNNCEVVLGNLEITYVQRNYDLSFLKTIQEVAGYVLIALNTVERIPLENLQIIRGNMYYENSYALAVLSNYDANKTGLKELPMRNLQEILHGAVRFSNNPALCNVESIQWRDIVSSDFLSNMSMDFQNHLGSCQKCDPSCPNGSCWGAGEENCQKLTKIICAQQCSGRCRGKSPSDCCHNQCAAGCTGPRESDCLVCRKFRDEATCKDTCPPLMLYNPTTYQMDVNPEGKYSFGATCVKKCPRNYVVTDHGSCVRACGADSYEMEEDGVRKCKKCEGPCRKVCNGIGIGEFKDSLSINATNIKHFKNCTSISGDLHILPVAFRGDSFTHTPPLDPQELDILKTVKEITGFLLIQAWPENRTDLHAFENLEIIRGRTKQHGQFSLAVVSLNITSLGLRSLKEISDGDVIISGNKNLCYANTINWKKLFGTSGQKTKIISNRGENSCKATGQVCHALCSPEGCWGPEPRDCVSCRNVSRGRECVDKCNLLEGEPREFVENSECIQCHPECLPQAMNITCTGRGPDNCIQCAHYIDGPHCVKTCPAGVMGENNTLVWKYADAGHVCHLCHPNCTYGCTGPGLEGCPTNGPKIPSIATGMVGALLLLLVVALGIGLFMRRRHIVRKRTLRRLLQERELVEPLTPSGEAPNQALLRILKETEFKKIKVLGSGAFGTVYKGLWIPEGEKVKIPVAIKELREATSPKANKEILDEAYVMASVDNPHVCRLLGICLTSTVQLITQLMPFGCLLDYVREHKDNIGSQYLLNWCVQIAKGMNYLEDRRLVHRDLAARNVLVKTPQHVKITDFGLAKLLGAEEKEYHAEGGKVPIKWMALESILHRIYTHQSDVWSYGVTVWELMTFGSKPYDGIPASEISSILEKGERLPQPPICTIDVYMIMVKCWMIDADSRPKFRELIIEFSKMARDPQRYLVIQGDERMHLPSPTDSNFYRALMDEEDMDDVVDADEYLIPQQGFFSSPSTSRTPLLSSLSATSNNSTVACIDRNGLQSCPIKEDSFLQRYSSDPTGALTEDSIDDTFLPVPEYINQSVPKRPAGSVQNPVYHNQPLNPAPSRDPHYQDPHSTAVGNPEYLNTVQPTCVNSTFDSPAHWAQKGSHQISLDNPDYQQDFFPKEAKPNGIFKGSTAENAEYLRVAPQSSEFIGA

[4] = molecular target: T2, Human Type II Topoisomerase (p170 Form) (Homo sapiens, UniProt P11388); experiment: Photo-crosslinking of radiolabeled compound to Topoisomerase II (SDS gel, autoradiography); format: binding; settings: 50 nM, 60 minutes at room temperature, UV 254 nm, FIG. 3
T2 construct: purchased TopoGEN, Inc., Columbus, Ohio
T2 sequence (P11388 whole entry): as the sequence (P11388 whole entry) above
Procedure: 30 Units (15 ul) Human Type II Topoisomerase (p170 Form) (from TopoGEN, Inc., Columbus, Ohio) was incubated with 50 nM radiolabeled Example 102 compound for 60 minutes at room temperature.
Radiolabeled Example 102 compound stock is 16.67 uM, 60 Ci/mmol, 1 mCi/ml American Radiolabeled Chemicals, Inc., St. Louis, Mo. Samples were either UV irradiated (+) with a short wavelength UV Source (254 nm) for 10 minutes at a distance of 3.5 cm or not irradiated (−). 8 ul of 5× sample buffer (150 mM Tris, pH 6.8, 50% glycerol, 1% SDS, 50 mM dithiothreitol, 62 mg/ml bromophenol blue) was added to the samples and boiled for 5 minutes. The entire sample was then loaded onto a 6% Tris-Glycine SDS-gel (10 well, 1.5 mm thickness) (Invitrogen, Carlsbad, Calif.). The gel was stained with 1% Coomassie Brilliant Blue in 40% methanol, 7.5% acetic acid for 2 hours then de-stained in several changes of de-stainer (40% methanol, 7.5% acetic acid). The gel was then incubated in Amplify (Amersham, Piscataway, N.J.) for 30 minutes at room temperature and then dried down on Whatman filter paper at 80° C. for 2 hours on a gel dryer. The dried gel was put on Hyperfilm (Amersham) in a film cassette and placed at −80° C. for 5-7 days.

Molecule	IC50 (NCI-ADR/Res cells)	IC50 (MCF-7 cells)	Effect on topoisomerase I-dependent relaxation of supercoiled DNA (topoisomerase I)	IC50 (P388/ADR cells)	IC50 (P388 cells)	IC50 [3]	also measured
COc1ccc(N(C)c2nc(Cl)nc3ccccc23)cc1 [Example 1]	1.3 nM	2.9 nM	no apparent effect on topoisomerase I activity	2.7 nM	1.1 nM		GI50 (T-47D cells [1]): 8 nM; EC50 (T-47D cells [2]; 24 h, read-out: T-47D (24 hr) EC50 (nM)): 2 nM; EC50 (T-47D cells [2]; read-out: Caspase activation (EC50 nM)): 2 nM; GI50 (DLD cells): 8 nM; Inhibition of topoisomerase II-dependent relaxation of supercoiled DNA (Topoisomerase II): inhibition of DNA relaxation is substantial; GI50 (H1299 cells): 6 nM; GI50 (MX-1 cells): 5 nM; IC50 (tubulin): < 500 nM; GI50 (SW620 cells): 3 nM
COc1cc2nc(C)nc(Nc3cccc(Br)c3)c2cc1OC [R1=Me, R2=3′-Br, R3═H]						> 10000 nM	
COc1cc2nc(N)nc(Nc3cccc(Br)c3)c2cc1OC [R1═NH2, R2=3′-Br, R3═H]						> 10000 nM	
COc1cc([C@@H]2c3cc4c(cc3[C@@H](O[C@@H]3O[C@@H]5CO[C@@H](C)O[C@H]5[C@H](O)[C@H]3O)[C@H]3COC(=O)[C@H]23)OCO4)cc(OC)c1O [VP-16, etoposide, reference compound]			no apparent effect on topoisomerase I activity				
CC[C@]1(O)C[C@@H]2CN(CCc3c([nH]c4ccccc34)[C@@](C(=O)OC)(c3cc4c(cc3OC)N(C)[C@H]3[C@@](O)(C(=O)OC)[C@H](OC(C)=O)[C@]5(CC)C=CCN6CC[C@]43[C@@H]65)C2)C1 [Vinblastine, vinblastine]	3 nM	0.5 nM		2.8 nM	2.6 nM		
Radiolabeled (4-Azido-phenyl)-(2-methyl-quinazolin-4-yl)-methyl-amine [Radiolabeled Example 102 compound]							Binding to Topoisomerase II (crosslink on UV irradiation) [4]: binds sufficiently well to Topoisomerase II to crosslink to the enzyme when photoactivated
